Measured values published in ChEMBL document CHEMBL1938369, “A small molecule inhibitor of p53-inducible protein phosphatase PPM1D” (Bioorg Med Chem Lett, 2012).
Activity calls are given as the source filed them. No cut-off for these calls is given here.

Key:
[1] = target: T1, Protein phosphatase 1D (Homo sapiens) (UniProt O15297); assay: Inhibition of N-terminal histidine-tagged PPM1Dc at 4 uM after 10 mins by BIOMOL GREEN assay
T1 sequence (whole entry): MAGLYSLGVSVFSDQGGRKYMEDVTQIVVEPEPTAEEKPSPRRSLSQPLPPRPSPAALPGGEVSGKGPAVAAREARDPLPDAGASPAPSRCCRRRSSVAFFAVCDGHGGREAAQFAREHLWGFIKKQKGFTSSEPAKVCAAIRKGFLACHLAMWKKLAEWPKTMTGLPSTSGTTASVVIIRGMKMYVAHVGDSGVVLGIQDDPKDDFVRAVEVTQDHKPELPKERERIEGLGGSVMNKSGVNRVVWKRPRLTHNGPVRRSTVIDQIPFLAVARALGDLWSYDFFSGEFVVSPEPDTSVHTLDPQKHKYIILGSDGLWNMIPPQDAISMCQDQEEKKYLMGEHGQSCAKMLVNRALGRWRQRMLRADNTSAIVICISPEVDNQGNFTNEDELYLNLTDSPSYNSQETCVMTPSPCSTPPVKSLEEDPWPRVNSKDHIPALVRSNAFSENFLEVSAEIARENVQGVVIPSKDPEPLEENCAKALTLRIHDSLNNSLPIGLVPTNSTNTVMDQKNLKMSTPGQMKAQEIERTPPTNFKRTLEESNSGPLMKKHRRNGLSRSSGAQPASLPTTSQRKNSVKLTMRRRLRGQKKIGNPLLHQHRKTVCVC

MCF7 [2] = assay: Antiproliferative activity against human MCF7 cells overexpressing PPM1D at 40 uM after 1 to 5 days by trypan blue assay; assay type: functional
MCF7 [3] = assay: Induction of cell cycle arrest in human MCF7 cells assessed as increase in accumulation at Sub-G1 phase at 40 uM after 1 day by propidium iodide staining-based flow cytometry; assay type: functional
MCF7 [4] = assay: Induction of cell cycle arrest in human MCF7 cells assessed as accumulation at G2/M phase at 40 uM after 3 days by propidium iodide staining-based flow cytometry (reference value: 22.9 %); assay type: functional
MCF7 [5] = assay: Induction of cell cycle arrest in human MCF7 cells assessed as accumulation at […] phase at 40 uM after 1 day by propidium iodide staining-based flow cytometry (reference value: 24 %); assay type: functional
[6] = target: T1, Protein phosphatase 1D (Homo sapiens); assay: Inhibition of PPM1D in human MCF7 cells assessed as increase in p53 phosphorylation at Ser15 by Western blot analysis; assay type: cell-based
MCF7 [7] = assay: Induction of cell cycle arrest in human MCF7 cells assessed as accumulation at G2/M phase at 40 uM after 1 day by propidium iodide staining-based flow cytometry (reference value: 21.4 %); assay type: functional
MCF7 [8] = assay: Induction of cell cycle arrest in human MCF7 cells assessed as accumulation at G2/M phase at 40 uM after 5 days by propidium iodide staining-based flow cytometry (reference value: 21.2 %); assay type: functional
A549 = assay: Antiproliferative activity against human A549 cells at 40 uM after 1 to 5 days by trypan blue assay; assay type: functional, cell-based
MCF7 [9] = assay: Induction of cell cycle arrest in human MCF7 cells assessed as accumulation at Sub-G1 phase at 40 uM by propidium iodide staining-based flow cytometry; assay type: functional; details: TDE = time-dependent effect
MCF7 [10] = assay: Induction of cell cycle arrest in human MCF7 cells assessed as accumulation at Sub-G1 phase at 40 uM after 3 days by propidium iodide staining-based flow cytometry (reference value: 9.4 %); assay type: functional
[11] = target: T2, Protein phosphatase 1A (Homo sapiens) (UniProt P35813); assay: Inhibition of wild-type PPM1A expressed in BL21(DE3)pLysS cells at 40 uM after 10 mins by BIOMOL GREEN assay; assay type: cell-based
T2 sequence (whole entry): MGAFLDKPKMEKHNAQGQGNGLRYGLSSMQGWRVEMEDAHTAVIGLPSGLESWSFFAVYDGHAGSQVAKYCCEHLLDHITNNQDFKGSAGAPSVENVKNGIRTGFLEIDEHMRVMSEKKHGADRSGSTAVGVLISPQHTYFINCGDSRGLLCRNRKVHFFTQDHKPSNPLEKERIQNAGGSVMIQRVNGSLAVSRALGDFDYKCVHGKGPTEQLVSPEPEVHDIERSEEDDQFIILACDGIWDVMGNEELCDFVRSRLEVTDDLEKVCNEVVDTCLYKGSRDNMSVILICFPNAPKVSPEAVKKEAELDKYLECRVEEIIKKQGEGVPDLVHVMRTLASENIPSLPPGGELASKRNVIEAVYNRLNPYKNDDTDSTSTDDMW

MCF7 [12] = assay: Increase in PPM1D protein expression in human MCF7 cells at 10 uM after 24 hrs by immunofluorescence analysis; assay type: functional, cell-based
MCF7 [13] = assay: Induction of cell cycle arrest in human MCF7 cells assessed as accumulation at […] phase at 40 uM after 5 days by propidium iodide staining-based flow cytometry (reference value: 13.8 %); assay type: functional
[14] = Inhibition of PP2A using Ac-DDEMT(P)GYVATR-NH2 as substrate at 40 uM after 10 mins by BIOMOL GREEN assay
[15] = target: T1, Protein phosphatase 1D (Homo sapiens); assay: Inhibition of PPM1D in UV-irradiated human MCF7 cells assessed as increase in p53 phosphorylation at Ser15 measuring p53 protein level by Western blot analysis; assay type: cell-based
Protein phosphatase 1D = target: T3, Protein phosphatase 1D (Homo sapiens, UniProt O15297); assay: Inhibition of N-terminal histidine-tagged PPM1Dc after 10 mins using BIOMOL GREEN assay
T3 sequence (O15297 whole entry): T1 sequence (whole entry)

MCF7 [16] = assay: Induction of cell cycle arrest in human MCF7 cells assessed as accumulation at G1 phase at 40 uM after 1 day by propidium iodide staining-based flow cytometry (reference value: 45.6 %); assay type: functional
MCF7 [17] = assay: Induction of cell cycle arrest in human MCF7 cells assessed as accumulation at […] phase at 40 uM after 3 days by propidium iodide staining-based flow cytometry (reference value: 29.3 %); assay type: functional
[18] = Selectivity ratio for PPM1Dc over PPM1A
MCF7 [19] = assay: Antiproliferative activity against human MCF7 cells overexpressing PPM1D after 1 to 5 days by trypan blue assay; assay type: functional, cell-based
MCF7 [20] = assay: Increase in PPM1D protein expression in human MCF7 cells by Western blot analysis; assay type: functional, cell-based
MCF7 [21] = assay: Induction of cell cycle arrest in human MCF7 cells assessed as accumulation at G1 phase at 40 uM after 3 days by propidium iodide staining-based flow cytometry (reference value: 38.5 %); assay type: functional
MCF7 [22] = assay: Induction of cell cycle arrest in human MCF7 cells assessed as accumulation at G1 phase at 40 uM after 5 days by propidium iodide staining-based flow cytometry (reference value: 57 %); assay type: functional
MCF7 [23] = assay: Induction of cell cycle arrest in human MCF7 cells assessed as accumulation at Sub-G1 phase at 40 uM after 5 days by propidium iodide staining-based flow cytometry (reference value: 8.1 %); assay type: functional

For CC[Si](CC)(CC)O[C@@H]1C[C@H](C)C[C@@H]2[C@@H]1C[C@H](O[Si](C)(C)C(C)(C)C)[C@H]1[C@@]2(C)C[C@@H]2C[C@@]1(C)C(O)O2 (stereo not given in full), which inhibition [1] is on record?
The inhibition was 87.1%.

For C[C@H]1C[C@@H](O)[C@H]2C[C@H](O)[C@@H]3[C@](C)(CO)C[C@H](O)C[C@@]3(C)[C@@H]2C1, which inhibition [1] is on record?
Its inhibition is 6.3%.

And the Activity (MCF7 [2])?
The Activity was “inactive”.

Which inhibition [1] does the source give for CC[Si](CC)(CC)O[C@@H]1C[C@H](C)C[C@@H]2[C@@H]1C[C@H](O[Si](C)(C)C(C)(C)C)[C@@H]1[C@](C)(CO)CC(=O)C[C@@]21C here?
Its inhibition is 79.4%.

For CC[Si](CC)(CC)O[C@@H]1C[C@H](C)C[C@@H]2[C@@H]1C[C@H](O[Si](C)(C)C(C)(C)C)[C@@H]1[C@](C)(CO)C[C@H](O)C[C@@]21C, which Activity (MCF7 [3]) is on record?
The Activity was 5.3%.

And the Activity (MCF7 [4])?
Its Activity is 28.2%.

What about the Activity (MCF7 [5]) of the same compound?
Its Activity is 29.8%.

What about the inhibition [6] of the same compound?
Its inhibition is “Active”.

What about the Activity (MCF7 [7]) of the same compound?
Its Activity is 16.8%.

And the Activity (MCF7 [8])?
Its Activity is 12.9%.

And the inhibition [1]?
Its inhibition is 97.1%.

What about the Activity (A549) of the same compound?
The Activity was “inactive”.

And the Activity (MCF7 [9])?
The Activity was “tde”.

And the Activity (MCF7 [2])?
Its Activity is over 60%.

What about the Activity (MCF7 [10]) of the same compound?
The Activity was 16.4%.

What about the inhibition [11] of the same compound?
The inhibition was 68%.

What about the Activity (MCF7 [12]) of the same compound?
The Activity was “Active”.

And the Activity (MCF7 [13])?
The Activity was 15%.

And the inhibition [14]?
The inhibition was 11%.

And the inhibition [15]?
Its inhibition is “Active”.

What about the IC50 (Protein phosphatase 1D) of the same compound?
Its IC50 is 0.48 µM.

What about the Activity (MCF7 [16]) of the same compound?
The Activity was 39%.

And the Activity (MCF7 [17])?
The Activity was 16%.

And the Selectivity ratio [18]?
The Selectivity ratio was 50.

And the Activity (MCF7 [19])?
The Activity was “Dose-dependent effect”.

And the Activity (MCF7 [20])?
Its Activity is “Active”.

What about the Activity (MCF7 [21]) of the same compound?
Its Activity is 39.3%.

And the Activity (MCF7 [22])?
The Activity was 46.8%.

What about the Activity (MCF7 [23]) of the same compound?
Its Activity is 25.3%.

With C[C@H]1C[C@@H](O)[C@H]2C[C@H](O[Si](C)(C)C(C)(C)C)[C@@H]3[C@](C)(CO)C[C@H](O)C[C@@]3(C)[C@@H]2C1 as the compound, how does the inhibition [1] read?
The inhibition was 25.1%.
